Laboratory results published in patent US20060069064A1, “Methods for facilitating recovery of functions of endogenous or implanted or transplanted stem cells using hyaluronic acid” (priority 2003, published 2006).

Tests used:
5-FU-treated mice [1] = conditions: mouse, in vivo
Method: 5-FU was intraperitoneally injected in mice at 150 mg/kg. The counts of white blood cells (WBC), red blood cells (RBC), platelets (PLT), hemoglobin (HGB) and hematocrit (HCT) were monitored daily for two weeks. As expected, the treatment of mice with 5-FU induced severe bone marrow hypoplasia and pancytopenia. The numbers of WBC and PLT dropped from 8.4±1.5×10^6/ml and 678.4±82×10^6/ml before 5-FU administration to 2.52±0.5×10^6/ml and 388±50×10^6/ml, respectively, 7 days later (FIGS. 1A, B). The total number of mononuclear cells in the bone marrow decreased from 15.3±2.2×10^6/femur before to 5.00±0.65×10^6/femur 7 days after 5-FU administration (FIG. 2A). All parameters were recovered to normal in 14 days after 5-FU administration. To examine the effect of HA on 5-FU-perturbed hematopoiesis, 5-FU-treated (day 0) mice were administered 100 μg/mouse HA as a 0.05% solution in PBS (HA from Sigma-Aldrich, Catalog No.: H1751) on days 4, 6, 10, and 13. A control group of animals was treated with a 200-μl injection of PBS. The peripheral blood from HA- and PBS-treated mice was collected daily and examined for numbers of WBC, RBC, PLT, HGB, and HCT. […] The number of PLT in HA-treated mice was increased starting from day 5 and was elevated by a factor of 1.7 on day 8 (FIG. 1B). […]

5-FU-treated mice [2] = assay: Bone marrow hematopoiesis in 5-FU-treated mice (cell counts, morphological analysis); assay type: in vivo; conditions: 7 days after 5-FU 150 mg/kg i.p.; 15.3±2.2 before
Method: Because mature blood cells are a product of proliferation and differentiation of hematopoietic progenitors, we next examined the effect of HA on bone marrow hematopoiesis in 5-FU-treated mice. 5-FU-treated mice (day 0) were administered PBS or 100 μg/mouse HA (as a 0.05%solution in PBS) on day 4, 6, 10, and 13. Bone marrow cells were harvested on days 7, 14, 21, and 28. On day 7 the total number of bone marrow cells in the HA-treated mice was 3.5-fold higher in comparison to the PBS-treated mice (FIG. 2A). To evaluate the effect of HA on different hematopoietic lineages, a morphological analysis of the bone marrow cells was performed as followed. […]
To examine this assumption, bone marrow cells were cultured in methylcellulose to evaluate the number of proliferating lineage-committed progenitors. […] Colonies containing more then 20 cells were counted under the inverted microscope after 7 days of culture. […] Colonies containing at least 500 cells were counted after 14 days. […] We next investigated whether HA stimulation benefited the pool of committed progenitors at the cost of damaging more primitive progenitors that were measured by using a long-term culture-initiating cells (LTC-IC) assay. The number of LTC-IC in the bone marrow of mice treated with HA was evaluated using a limited dilution assay. […]

- time until all parameters recovered to normal after 5-FU administration (5-FU-treated mice [1]): 14 days
- total number of mononuclear cells in the bone marrow (5-FU-treated mice [2]): 5.00±0.65 ×10^6/femur
Compound: O=c1[nH]cc(F)c(=O)[nH]1 [5-FU, 5-fluorouracil]
